Our source for the viability values is ChEMBL document CHEMBL5608113, “Targeting of CAF-induced therapy resistance in CRC organoid-stroma co-cultures” (2024).

Holding throughout (assay type): functional, Homo sapiens
Holding throughout (details): Homo sapiens, Concentration 10 uM; read-out: Cell Viability

The test system of assay [1] is Colon cancer organoid. The assay can be described thus: Targeting of F14 CAF-induced therapy resistance in O23 CRC organoid-stroma co-culture. Cell viability is reported with Gefitinib.
Assay [2] relates to Colon cancer organoid. The assay is described as follows: Targeting of F14 CAF-induced therapy resistance in O23 CRC organoid-stroma co-culture. Cell viability is reported without Gefitinib.
Assay [3] has as its system Colon cancer organoid. The assay can be described thus: Targeting of F14 CAF-induced therapy resistance in O14 CRC organoid-stroma co-culture. Cell viability is reported with Gefitinib.
Assay [4] has as its system Colon cancer organoid. The assay can be described thus: Targeting of F14 CAF-induced therapy resistance in O23 CRC organoid-stroma co-culture. Cell viability is reported with SN-38.
The test system of assay [5] is Colon cancer organoid. The assay is described as follows: Targeting of F14 CAF-induced therapy resistance in O14 CRC organoid-stroma co-culture. Cell viability is reported without Gefitinib.

What is called viability is a read-out of living cells in per cent, often relative to untreated cells. As for `CCOC(=O)c1c(/C(C#N)=C\N)c2ccc(Cl)c(Cl)c2n1C`, the viability at 10 µM is 52% in the assay with Colon cancer organoid [1]; 99.7% in the assay on Colon cancer organoid [2]; 47.7% with Colon cancer organoid [3]; 68.1% in the assay with Colon cancer organoid [4]; 106% in the assay with Colon cancer organoid [5].

Consider `O=C1[C@H](Cc2ccc(O)cc2)N2C(=O)CCN(C(=O)NCc3ccccc3)[C@H]2CN1Cc1cccc2ccccc12`, for which the viability at 10 µM in the assay with Colon cancer organoid [1] turned out to be 85.3%; with Colon cancer organoid [2], 125%; with Colon cancer organoid [3], 22%; in the assay on Colon cancer organoid [4] it was 103%; in the assay on Colon cancer organoid [5], 37.1%.

Consider `Cc1sc2c(c1C)C(c1ccc(Cl)cc1)=N[C@H](CC(=O)OC(C)(C)C)c1nnc(C)n1-2`, for which the viability at 10 µM in the assay with Colon cancer organoid [1] stood at 72%; in the assay with Colon cancer organoid [2], 130%; in the assay on Colon cancer organoid [3], 55.8%; in the assay on Colon cancer organoid [4] it was 73.3%; with Colon cancer organoid [5] it was 103%.

For `CC(C)NC(=O)N1CC[C@H](NC2=Nc3cc(F)ccc3N(CC(F)F)c3ccc(Cl)cc32)C1`, the viability at 10 µM in the assay with Colon cancer organoid [1] amounted to 61.4%; in the assay with Colon cancer organoid [2], 79%; with Colon cancer organoid [3], 36%; in the assay with Colon cancer organoid [4], 42.9%; in the assay on Colon cancer organoid [5], 89.7%.

On to `COc1cc(-c2cn([C@H]3CCc4c(F)cccc4N(CC(F)(F)F)C3=O)nn2)ccc1-n1cnc(C)c1`, for which the viability at 10 µM with Colon cancer organoid [1] is 72%; in the assay on Colon cancer organoid [2], 86.7%; with Colon cancer organoid [3], 38.5%; in the assay on Colon cancer organoid [4], 69.6%; in the assay on Colon cancer organoid [5] it was 108%.

For the molecule `CN1CCN(c2ccc(-c3cccc(CN4CCOCC4)c3)cc2NC(=O)c2c[nH]c(=O)cc2C(F)(F)F)CC1`, the viability at 10 µM in the assay on Colon cancer organoid [1] worked out at 62.5%; in the assay with Colon cancer organoid [2], 131%; in the assay with Colon cancer organoid [3] it was 65.8%; in the assay on Colon cancer organoid [4] it was 102%; in the assay with Colon cancer organoid [5], 99.7%.

Turning to `Cc1nc(N2CC[C@H](O)C2)ncc1-c1cc(C(F)(F)F)cc2[nH]ncc12`, the viability at 10 µM was found to be 51.5% in the assay on Colon cancer organoid [1]; 123% in the assay on Colon cancer organoid [2]; 21.1% in the assay on Colon cancer organoid [3]; 82.7% with Colon cancer organoid [4]; 91% in the assay with Colon cancer organoid [5].

For `C[C@@H]1CC(=O)Nc2cccc(-c3ccc4c(c3)c(-c3cnn(C)c3)nn4C)c2N1`, the viability at 10 µM in the assay with Colon cancer organoid [1] was determined as 69%; in the assay on Colon cancer organoid [2], 115%; in the assay with Colon cancer organoid [3] it was 21.1%; in the assay on Colon cancer organoid [4], 70.4%; with Colon cancer organoid [5], 43.6%.

In the case of `CN(C)[C@H]1CN(C2CCc3cccc(F)c32)C[C@@H]1c1ccc(N2CCN(S(C)(=O)=O)CC2)cc1` (stereo not given in full), the viability at 10 µM in the assay on Colon cancer organoid [1] worked out at 107%; in the assay on Colon cancer organoid [2] it was 81.8%; in the assay with Colon cancer organoid [3] it was 68.1%; with Colon cancer organoid [4], 112%; in the assay with Colon cancer organoid [5] it was 70.2%.

In the case of `CO[C@H]1CNC[C@@H](OCC2CCC(F)(F)CC2)[C@@H]1Nc1ncc(-c2cncc(C)c2)c2cc(C)c(=O)[nH]c12`, the viability at 10 µM in the assay on Colon cancer organoid [1] was found to be 78.8%; in the assay with Colon cancer organoid [2], 104%; in the assay on Colon cancer organoid [3], 65.2%; with Colon cancer organoid [4], 81.8%; in the assay with Colon cancer organoid [5], 78.7%.

With `Cc1sc2c(c1C)C(c1ccc(Cl)cc1)=N[C@@H](CC(=O)NCCCCCCCCNC(=O)COc1cccc3c1C(=O)N(C1CCC(=O)NC1=O)C3=O)c1nnc(C)n1-2` (stereo not given in full), the viability at 10 µM with Colon cancer organoid [1] is 5.19%; with Colon cancer organoid [2] it was 6.5%; in the assay on Colon cancer organoid [3], 2.25%; with Colon cancer organoid [4] it was 4.21%; with Colon cancer organoid [5] it was 3.56%.

With `COc1cc(Nc2ccnc3ccc(Br)cc23)cc(OC)c1OC`, the viability at 10 µM with Colon cancer organoid [1] turned out to be 6.32%; in the assay with Colon cancer organoid [2] it was 35%; in the assay with Colon cancer organoid [3], 8.76%; in the assay with Colon cancer organoid [4] it was 12.5%; with Colon cancer organoid [5], 18.2%.

For the molecule `CCN(CC)S(=O)(=O)Nc1cccc(-c2ccc3c(NC(=O)C4CC4)n[nH]c3c2)c1`, the viability at 10 µM was found to be 65.5% with Colon cancer organoid [1]; 120% with Colon cancer organoid [2]; 50.5% in the assay with Colon cancer organoid [3]; 69.2% in the assay on Colon cancer organoid [4]; 144% with Colon cancer organoid [5].

As for `CC(C)C(=O)Nc1n[nH]c2cc(-c3cccc(NS(=O)(=O)C4CC4)c3)ccc12`, the viability at 10 µM in the assay with Colon cancer organoid [1] turned out to be 54.8%; in the assay on Colon cancer organoid [2], 115%; with Colon cancer organoid [3], 57.8%; in the assay with Colon cancer organoid [4], 62.1%; in the assay with Colon cancer organoid [5] it was 129%.

Consider `CN1CCN(Cc2cc(NC(=O)c3ccc4c(c3)CN(c3ccccc3)CC4)cc(C(F)(F)F)c2)CC1`, for which the viability at 10 µM was 64.5% in the assay with Colon cancer organoid [1]; 112% in the assay on Colon cancer organoid [2]; 50.8% in the assay with Colon cancer organoid [3]; 63.3% in the assay with Colon cancer organoid [4]; 115% in the assay on Colon cancer organoid [5].

As for `CN(C)C(=O)/C(C#N)=C/c1ccc(-c2nc3cnc4[nH]ccc4c3n2C2CCCCC2)o1`, the viability at 10 µM was 56.7% with Colon cancer organoid [1]; 96.1% in the assay with Colon cancer organoid [2]; 47.2% with Colon cancer organoid [3]; 65.2% in the assay with Colon cancer organoid [4]; 117% in the assay on Colon cancer organoid [5].

Regarding `COc1c(C)cc(NC(=O)c2nn(Cc3ccc(F)cc3)c3c2CN(C(=O)c2ccc[nH]2)C[C@]3(C)C(N)=O)cc1C`, the viability at 10 µM was 66.4% in the assay with Colon cancer organoid [1]; 81.4% with Colon cancer organoid [2]; 52.8% in the assay on Colon cancer organoid [3]; 73.7% in the assay with Colon cancer organoid [4]; 121% in the assay on Colon cancer organoid [5].

`Cn1cc(-c2ccc3occ(-c4ccccc4-c4ccccc4)c3n2)cn1`: the viability at 10 µM was 89.5% in the assay on Colon cancer organoid [1]; 153% in the assay with Colon cancer organoid [2]; 75.6% with Colon cancer organoid [3]; 63.4% with Colon cancer organoid [4]; 115% in the assay with Colon cancer organoid [5].

`Cc1cccc(-c2cnc3occ(-c4ccc(C(=O)O)c(C5CCCC5)c4)c3c2)c1`: the viability at 10 µM in the assay with Colon cancer organoid [1] turned out to be 75.6%; in the assay with Colon cancer organoid [2], 111%; with Colon cancer organoid [3] it was 52.4%; with Colon cancer organoid [4], 66.7%; with Colon cancer organoid [5], 112%.

`CN(C)C(=O)c1ccc(-c2cc(C(=O)N[C@@H]3CCc4ccccc43)no2)cc1O`: the viability at 10 µM with Colon cancer organoid [1] was 61.6%; in the assay on Colon cancer organoid [2], 83.1%; with Colon cancer organoid [3], 33.6%; with Colon cancer organoid [4], 64.6%; with Colon cancer organoid [5], 77%.

Take `COc1cc(-c2cn([C@H]3CCc4ccccc4N(CC(F)(F)F)C3=O)nn2)ccc1-n1ccc(C)n1`: the viability at 10 µM in the assay with Colon cancer organoid [1] worked out at 38.9%; with Colon cancer organoid [2], 81.1%; in the assay on Colon cancer organoid [3] it was 41.1%; with Colon cancer organoid [4] it was 48.6%; in the assay on Colon cancer organoid [5], 113%.

As to `Cn1cc(-c2ccc3occ(-c4cccc(-c5ccncc5)c4)c3n2)cn1`, the viability at 10 µM with Colon cancer organoid [1] worked out at 87.7%; with Colon cancer organoid [2], 114%; with Colon cancer organoid [3], 56.4%; in the assay with Colon cancer organoid [4] it was 65.6%; in the assay on Colon cancer organoid [5], 112%.

For `O=C(NCCCN1CCOC1=O)c1cnc(NCc2cc(Br)ccc2Br)nc1NC1CCCC1`, the viability at 10 µM amounted to 55.2% in the assay on Colon cancer organoid [1]; 118% with Colon cancer organoid [2]; 51.8% in the assay with Colon cancer organoid [3]; 61.8% with Colon cancer organoid [4]; 126% with Colon cancer organoid [5].

Turning to `CN(C)C(=O)c1ccc(-c2cc(C(=O)N(C)C3CCCC3)no2)cc1O`, the viability at 10 µM in the assay on Colon cancer organoid [1] was determined as 55.9%; in the assay with Colon cancer organoid [2], 111%; in the assay with Colon cancer organoid [3], 52.8%; in the assay on Colon cancer organoid [4], 76.4%; in the assay on Colon cancer organoid [5], 103%.

As for `O=C(O)c1ccc(-c2coc3ncc(-c4ccccc4)cc23)cc1Cl`, the viability at 10 µM stood at 172% in the assay on Colon cancer organoid [1]; 214% in the assay with Colon cancer organoid [2]; 73.9% in the assay on Colon cancer organoid [3]; 103% in the assay with Colon cancer organoid [4]; 71.5% with Colon cancer organoid [5].

On to `CN(C)C(=O)/C(C#N)=C/c1ccc(-c2nc3cnc4c(ccn4C)c3n2C2CCCCC2)o1`, for which the viability at 10 µM in the assay on Colon cancer organoid [1] was 53.6%; in the assay on Colon cancer organoid [2], 83.6%; with Colon cancer organoid [3], 63.9%; with Colon cancer organoid [4], 46.5%; with Colon cancer organoid [5], 107%.

`c1ccc2oc(-c3csc(C4CCN(Cc5nc6ncccc6[nH]5)CC4)n3)cc2c1`: the viability at 10 µM worked out at 66% with Colon cancer organoid [1]; 159% with Colon cancer organoid [2]; 37.9% in the assay with Colon cancer organoid [3]; 60.8% in the assay on Colon cancer organoid [4]; 94.5% in the assay on Colon cancer organoid [5].

Consider `C[C@H]1CCCN1Cc1nc2cc(NC(=O)c3ccc4cnccc4c3)ccc2[nH]1`, for which the viability at 10 µM was determined as 26.6% in the assay on Colon cancer organoid [1]; 68.1% with Colon cancer organoid [2]; 37.4% in the assay on Colon cancer organoid [3]; 43.3% with Colon cancer organoid [4]; 53.7% in the assay on Colon cancer organoid [5].

Consider `COc1cc(Nc2nc(C)cc(-c3cnn4nc(OC)ccc34)n2)cc(C(F)(F)F)c1`, for which the viability at 10 µM is 68.9% with Colon cancer organoid [1]; 119% in the assay with Colon cancer organoid [2]; 52.6% in the assay on Colon cancer organoid [3]; 59.6% in the assay with Colon cancer organoid [4]; 115% with Colon cancer organoid [5].

In the case of `COc1cc(C(=O)N2CC[C@@H](O)[C@@H](N)C2)cc2nc(-c3cc4ccccc4n3CC3CC3)n(C)c12`, the viability at 10 µM was 73.5% in the assay with Colon cancer organoid [1]; 112% with Colon cancer organoid [2]; 58.8% with Colon cancer organoid [3]; 75.5% in the assay on Colon cancer organoid [4]; 107% in the assay on Colon cancer organoid [5].

Take `Cc1cc(CN)cc(C)c1-c1ncn(C)c1-c1cncn1C`: the viability at 10 µM worked out at 73.9% in the assay with Colon cancer organoid [1]; 112% in the assay on Colon cancer organoid [2]; 80.2% with Colon cancer organoid [3]; 87.1% with Colon cancer organoid [4]; 112% in the assay on Colon cancer organoid [5].

As for `CCn1c(-c2nc3cc(C(=O)N4CCCC(N)C4)ccc3n2C)cc2ccccc21` (stereo not given), the viability at 10 µM in the assay on Colon cancer organoid [1] was 83.2%; with Colon cancer organoid [2], 139%; in the assay with Colon cancer organoid [3], 65%; in the assay on Colon cancer organoid [4] it was 79.2%; in the assay on Colon cancer organoid [5] it was 76.9%.
